Among the data in patent US7928140B2, “Benzothiazole PI3 kinase modulators for cancer treatment” (Amgen Inc., priority 2007, dated 2011) are IC50 values, retold here.

Like-named read-outs stand apart in the source and are kept apart here. Some results are limits rather than exact numbers.

In assay [1] the test system is phosphorylation of Serine 473 in Akt, HCT 116 human colon carcinoma cells. Put plainly: Cell-based phospho-AKT Ser473 assay (MSD sandwich immunoassay, IGF-1 stimulated). Conditions: Homo sapiens. A digest of the protocol: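 HCT116 cells, 16,000/well and plated overnight, were pre-treated with serially diluted compound for 2 h at 37 °C, then stimulated with IGF-1 at 100 ng/ml for 15 min. Lysates were assayed for Akt pSer473 by MSD sandwich electrochemiluminescence, and IC50 was derived from dose-response data.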

The target of a further assay is T1, PI3K α (Homo sapiens, UniProt P42336).
T1 construct: Full length p110 subunits of PI3K α, β and δ, N-terminally labeled with polyHis tag; polyHis (N); made in house; host or cells: Sf9 insect cells (baculovirus)
T1 sequence (P42336 whole entry, species assumed): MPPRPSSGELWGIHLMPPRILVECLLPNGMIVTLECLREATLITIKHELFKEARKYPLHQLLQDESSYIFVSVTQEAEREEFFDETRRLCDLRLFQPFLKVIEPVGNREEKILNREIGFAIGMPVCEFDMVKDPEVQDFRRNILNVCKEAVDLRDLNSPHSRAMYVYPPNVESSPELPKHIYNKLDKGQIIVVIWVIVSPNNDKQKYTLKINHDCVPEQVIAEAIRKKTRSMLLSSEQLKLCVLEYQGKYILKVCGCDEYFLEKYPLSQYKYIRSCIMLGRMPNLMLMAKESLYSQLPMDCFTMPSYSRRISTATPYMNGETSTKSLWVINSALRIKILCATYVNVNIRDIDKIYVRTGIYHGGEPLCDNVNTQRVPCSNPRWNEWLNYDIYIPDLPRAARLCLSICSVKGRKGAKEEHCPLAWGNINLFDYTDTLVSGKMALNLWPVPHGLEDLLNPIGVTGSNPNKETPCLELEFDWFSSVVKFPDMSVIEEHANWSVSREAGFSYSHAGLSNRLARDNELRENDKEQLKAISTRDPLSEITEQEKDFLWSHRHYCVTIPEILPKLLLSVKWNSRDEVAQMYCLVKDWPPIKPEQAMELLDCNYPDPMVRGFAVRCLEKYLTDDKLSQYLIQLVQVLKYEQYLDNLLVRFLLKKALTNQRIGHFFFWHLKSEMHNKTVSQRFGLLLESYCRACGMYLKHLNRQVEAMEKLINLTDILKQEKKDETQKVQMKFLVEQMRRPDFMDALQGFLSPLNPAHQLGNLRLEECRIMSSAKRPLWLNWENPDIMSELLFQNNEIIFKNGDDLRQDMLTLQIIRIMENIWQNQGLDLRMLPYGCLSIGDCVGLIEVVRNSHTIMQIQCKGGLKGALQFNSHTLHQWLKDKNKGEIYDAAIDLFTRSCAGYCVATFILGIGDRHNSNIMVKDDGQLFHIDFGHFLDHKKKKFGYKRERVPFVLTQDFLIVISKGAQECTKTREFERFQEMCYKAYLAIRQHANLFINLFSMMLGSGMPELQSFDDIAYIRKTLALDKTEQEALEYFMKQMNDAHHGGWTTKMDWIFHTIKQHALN
T1 sequence (P27986 whole entry partner, species assumed): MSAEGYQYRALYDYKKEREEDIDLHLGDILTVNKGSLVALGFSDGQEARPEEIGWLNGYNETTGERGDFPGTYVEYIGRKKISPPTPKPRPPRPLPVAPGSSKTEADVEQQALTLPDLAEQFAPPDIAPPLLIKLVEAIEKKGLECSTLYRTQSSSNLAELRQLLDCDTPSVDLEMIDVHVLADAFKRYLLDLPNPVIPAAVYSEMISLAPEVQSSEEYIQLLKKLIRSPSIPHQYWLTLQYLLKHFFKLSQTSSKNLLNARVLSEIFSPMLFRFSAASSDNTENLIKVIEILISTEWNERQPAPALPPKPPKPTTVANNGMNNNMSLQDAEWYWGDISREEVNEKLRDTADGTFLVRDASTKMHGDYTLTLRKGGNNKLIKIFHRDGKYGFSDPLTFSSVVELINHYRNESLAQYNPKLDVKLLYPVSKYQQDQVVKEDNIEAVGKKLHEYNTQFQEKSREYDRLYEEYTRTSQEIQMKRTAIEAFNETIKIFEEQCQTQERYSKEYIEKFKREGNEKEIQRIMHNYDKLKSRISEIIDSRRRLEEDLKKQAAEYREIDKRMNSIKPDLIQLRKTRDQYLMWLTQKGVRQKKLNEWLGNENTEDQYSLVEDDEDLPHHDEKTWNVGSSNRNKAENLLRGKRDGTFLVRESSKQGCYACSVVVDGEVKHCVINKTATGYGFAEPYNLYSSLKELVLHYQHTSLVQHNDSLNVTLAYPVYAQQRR
Put plainly: In vitro PI3 kinase enzyme assay (alpha), ATP loss, bioluminescence.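 Also: purified p110α/p85 heterodimer acting on PtdIns(4,5)P2 at room temperature, remaining ATP read by luminescence, inhibition scaled between compound-free wells with and without enzyme.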 Format: biochemical. Conditions: read-out: PI3Kα ATP loss IC50.

Another assay addresses T2, PI3K β (Homo sapiens, UniProt P42338).
T2 construct: Full length p110 subunits of PI3K α, β and δ, N-terminally labeled with polyHis tag; polyHis (N); made in house; host or cells: Sf9 insect cells (baculovirus)
Put plainly: In vitro PI3 kinase enzyme assay (beta), ATP loss, bioluminescence.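 Also: purified p110β/p85 heterodimer with PtdIns(4,5)P2 as acceptor, incubated at room temperature, leftover ATP read by luminescence, inhibition scaled to compound-free wells with and without enzyme.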 The assay is classed as biochemical. Conditions: read-out: PI3Kβ ATP loss IC50.

Setting [2] is: HCT-116, HCT 116 cells, read-out: HCT 116 pAKT IC50.

T2 sequence (P42338 whole entry): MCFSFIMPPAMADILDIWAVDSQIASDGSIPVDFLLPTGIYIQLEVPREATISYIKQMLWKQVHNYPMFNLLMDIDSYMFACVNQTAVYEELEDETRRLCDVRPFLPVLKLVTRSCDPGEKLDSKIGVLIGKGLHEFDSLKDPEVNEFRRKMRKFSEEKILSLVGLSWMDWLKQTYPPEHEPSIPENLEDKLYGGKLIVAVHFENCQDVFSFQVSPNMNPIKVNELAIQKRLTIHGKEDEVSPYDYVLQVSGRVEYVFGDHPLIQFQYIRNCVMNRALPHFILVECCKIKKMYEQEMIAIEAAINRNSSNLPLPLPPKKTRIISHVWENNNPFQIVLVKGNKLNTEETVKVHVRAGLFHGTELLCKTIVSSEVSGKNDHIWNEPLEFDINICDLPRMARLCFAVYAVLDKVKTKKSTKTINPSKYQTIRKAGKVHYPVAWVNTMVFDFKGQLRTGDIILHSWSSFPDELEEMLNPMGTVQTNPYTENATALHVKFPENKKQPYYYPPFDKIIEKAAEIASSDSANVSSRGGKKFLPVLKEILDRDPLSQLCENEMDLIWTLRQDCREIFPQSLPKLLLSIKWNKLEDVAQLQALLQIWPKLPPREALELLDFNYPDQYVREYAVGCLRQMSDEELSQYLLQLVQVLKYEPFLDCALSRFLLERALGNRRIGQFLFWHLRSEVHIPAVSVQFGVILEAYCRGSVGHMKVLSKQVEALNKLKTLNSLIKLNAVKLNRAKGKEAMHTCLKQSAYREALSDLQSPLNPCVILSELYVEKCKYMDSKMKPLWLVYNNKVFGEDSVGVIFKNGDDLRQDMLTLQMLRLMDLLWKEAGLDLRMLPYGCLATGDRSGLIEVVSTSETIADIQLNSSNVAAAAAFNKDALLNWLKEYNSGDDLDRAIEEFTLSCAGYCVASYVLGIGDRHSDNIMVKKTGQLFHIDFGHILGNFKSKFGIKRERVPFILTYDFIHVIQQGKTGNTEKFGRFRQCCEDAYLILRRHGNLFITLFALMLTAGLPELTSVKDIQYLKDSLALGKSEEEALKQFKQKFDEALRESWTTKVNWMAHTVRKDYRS
T2 sequence (P27986 whole entry partner): as the sequence (P27986 whole entry partner, species assumed) above
Procedure for PI3K α: Full length p110 subunits of PI3K α, β and δ, N-terminally labeled with polyHis tag, were co-expressed with p85 in baculovirus expression vectors in sf9 insect cells. P110/p85 heterodimers were purified by sequential Ni-NTA, Q-HP, and Superdex-100 chromatography. Purified α, β and δ isozymes were stored at −20° C. in 20 mM Tris, pH 8, 0.2M NaCl, 50% glycerol, 5 mM DTT, 2 mM Na cholate.
PI3K enzyme assays (alpha, beta, delta and gamma) were performed in 25 mL with the above final concentrations of components in white polypropylene plates (Costar catalogue #3355). Phosphatidyl inositol phosphoacceptor, PtdIns(4,5)P2 (eg. P4508) was obtained from Echelon Biosciences. The ATPase activity of the alpha and gamma isozymes was not greatly stimulated by PtdIns(4,5)P2 under these conditions and was therefore omitted from the assay of these isozymes. Test compounds were dissolved in DMSO and diluted with three-fold serial dilutions. The compound in DMSO (1 μL) was added per test well, and the inhibition relative to reactions containing no compound, with and without enzyme was determined. After assay incubation at RT, the reaction was stopped and residual ATP determined by addition of an equal volume of a commercial ATP bioluminescence kit (Perkin Elmer EasyLite) according to the manufacturer's instructions, and detected using an Analyst GT luminometer.

For the molecule `CC(=O)Nc1nc2ccc(-c3ccnc(OCc4ccc(C)cc4)n3)cc2s1` [Example 106, N-(6-(2-((4-methylbenzyl)oxy)-4-pyrimidinyl)-1,3-benzothiazol-2-yl)acetamide], the figures for the IC50 (in assay [1] (setting [2]); at PI3K α; at PI3K β) were 2530 nM, 220 nM and 1240 nM, respectively.
With `CC(=O)Nc1nc2ccc(-c3ccnc(Sc4c(C)cccc4C)n3)cc2s1` [Example 129, N-(6-(2-((2,6-dimethylphenyl)sulfanyl)-4-pyrimidinyl)-1,3-benzothiazol-2-yl)acetamide], the IC50 (as a rule, the point on the concentration scale where inhibition reaches its midpoint) was 978 nM in assay [1] (setting [2]), 38.3 nM on PI3K α and 477 nM at PI3K β.
For the molecule `CC(=O)NC(C)(C)c1ccc(S(=O)(=O)Nc2cc(-c3ccc4nc(N)sc4c3)cnc2Cl)cc1` [Example 323, N-(1-(4-((5-(2-amino-1,3-benzothiazol-6-yl)-2-chloro-3-pyridinyl)sulfamoyl)phenyl)-1-methylethyl)acetamide], the IC50 was 915 nM in assay [1] (setting [2]), 19.6 nM on PI3K α and 33.2 nM on PI3K β.
`CC(=O)Nc1nc2ccc(-c3ccnc(OCc4ccccc4)n3)cc2s1` [Example 3, N-(6-(2-(benzyloxy)-4-pyrimidinyl)-1,3-benzothiazol-2-yl)acetamide]: the IC50 in assay [1] (setting [2]) was found to be 3510 nM; on PI3K α, 95.6 nM; on PI3K β, 240 nM.
`CC(=O)Nc1nc2ccc(-c3cncc(NS(=O)(=O)c4cccc(F)c4)c3)cc2s1` [Example 199, N-(6-(5-(3-fluorophenylsulfonamido)pyridin-3-yl)benzo[d]thiazol-2-yl)acetamide]: the results for the IC50 (in assay [1] (setting [2]); at PI3K α; on PI3K β) were 75 nM, 3.8 nM and 10.3 nM, respectively.
On the same counts, the results for `COc1cccc(S(=O)(=O)c2cccc(-c3ccc4nc(NC(C)=O)sc4c3)n2)c1` [Example 69, N-(6-(6-((3-methoxyphenyl)sulfonyl)-2-pyridinyl)-1,3-benzothiazol-2-yl)acetamide] are 296 nM, 46.5 nM and 284 nM.
Regarding `CC(=O)Nc1nc2ccc(-c3cnc(Cl)c(OC(F)F)c3)cc2s1` [Example 247, N-(6-(6-chloro-5-(difluoromethoxy)pyridin-3-yl)benzo[d]thiazol-2-yl)acetamide], the IC50 in assay [1] (setting [2]) is 93.9 nM; on PI3K α it was 19.5 nM; at PI3K β, 244 nM.
As for `CC(=O)Nc1nc2ccc(-c3cnc(C)c(NS(=O)(=O)c4cccc(C(F)(F)F)c4)c3)cc2s1` [Example 113, N-(6-(6-methyl-5-(((3-(trifluoromethyl)phenyl)sulfonyl)amino)-3-pyridinyl)-1,3-benzothiazol-2-yl)acetamide], the IC50 turned out to be 6.7 nM in assay [1] (setting [2]), 6.4 nM at PI3K α and 13 nM at PI3K β.
Take `CC(=O)Nc1nc2c(F)cc(-c3cncc(NS(=O)(=O)c4ccc(C(F)(F)F)cc4)c3)cc2s1` [Example 117, N-(4-fluoro-6-(5-(4-(trifluoromethyl)phenylsulfonamido)pyridin-3-yl)benzo[d]thiazol-2-yl)acetamide]: the IC50 in assay [1] (HCT-116, read-out: HCT 116 pAKT IC50) stood at 301 nM; on PI3K α it was 7.7 nM; on PI3K β it was 55.8 nM.
With `CC(=O)Nc1nc2ccc(-c3cnc(Cl)c(OC(C)=O)c3)cc2s1` [Example 303, 5-(2-acetamidobenzo[d]thiazol-6-yl)-2-chloropyridin-3-yl acetate], the values for the IC50 (in assay [1] (setting [2]); on PI3K α; on PI3K β) were 1.7 nM, 2 nM and 12.2 nM, respectively.
Regarding `CC(=O)Nc1nc2ccc(-c3cncc(N(C)S(=O)(=O)c4ccc(C)cc4)n3)cc2s1` [Example 127, N-(6-(6-(methyl((4-methylphenyl)sulfonyl)amino)-2-pyrazinyl)-1,3-benzothiazol-2-yl)acetamide], the values for the IC50 (in assay [1] (setting [2]); at PI3K α; at PI3K β) were 58.1 nM, 27.8 nM and 31.6 nM, respectively.
For `CC(=O)Nc1nc2ccc(-c3cncc(NS(=O)(=O)c4ccc(C)cc4)c3)cc2s1` [Example 194, N-(6-(5-(4-methylphenylsulfonamido)pyridin-3-yl)benzo[d]thiazol-2-yl)acetamide], the IC50 in assay [1] (setting [2]) was 27.6 nM; on PI3K α, 9.8 nM; on PI3K β it was 25.5 nM.
As to `COCC(=O)Nc1nc2ccc(-c3cnc(Cl)c(NC(C)C)c3)cc2s1` [Example 144, N-(6-(6-chloro-5-((1-methylethyl)amino)-3-pyridinyl)-1,3-benzothiazol-2-yl)-2-methoxyacetamide], the figures for the IC50 (in assay [1] (setting [2]); at PI3K α; on PI3K β) were 723 nM, 112 nM and 1570 nM, respectively.
As for `CC(=O)Nc1nc2ccc(-c3cnc(Cl)c(NS(=O)(=O)c4ccc(C)cc4)c3)cc2s1` [Example 189, N-(6-(6-chloro-5-(4-methylphenylsulfonamido)pyridin-3-yl)benzo[d]thiazol-2-yl)acetamide], the IC50 is 3.9 nM in assay [1] (setting [2]), 6.4 nM on PI3K α and 7.7 nM on PI3K β.
`CC(=O)Nc1nc2ccc(-c3ccnc(NS(=O)(=O)c4ccccc4)n3)cc2s1` [Example 77, N-(6-(2-(Phenylsulfonamido)pyrimidin-4-yl)benzo[d]thiazol-2-yl)acetamide]: the IC50 was determined as 2350 nM in assay [1] (setting [2]), 84.8 nM at PI3K α and 543 nM at PI3K β.
As to `CC(=O)Nc1nc2ccc(-c3ccnc(NC4CCOCC4)n3)cc2s1` [Example 261, N-(6-(2-(tetrahydro-2H-pyran-4-ylamino)pyrimidin-4-yl)benzo[d]thiazol-2-yl)acetamide], the IC50 in assay [1] (setting [2]) came to 1700 nM; on PI3K α, 900 nM; on PI3K β, 13100 nM.
Take `CC(=O)Nc1nc2ccc(-c3ccnc(OCc4ccc5c(c4)OCO5)n3)cc2s1` [Example 40, N-(6-(2-(1,3-benzodioxol-5-ylmethoxy)-4-pyrimidinyl)-1,3-benzothiazol-2-yl)acetamide]: the IC50 in assay [1] (setting [2]) was 1050 nM; on PI3K α it was 83.4 nM; on PI3K β, 25100 nM.
Take `COc1ccc(Sc2cncc(-c3ccc4nc(NC(C)=O)sc4c3)n2)cc1` [Example 133, N-(6-(6-((4-methoxyphenyl)sulfanyl)-2-pyrazinyl)-1,3-benzothiazol-2-yl)acetamide]: the IC50 in assay [1] (setting [2]) worked out at 1230 nM; at PI3K α, 41.5 nM; at PI3K β it was 75.4 nM.
`CC(=O)Nc1nc2ccc(-c3ccnc(OCc4cccnc4)n3)cc2s1` [Example 2, N-(6-(2-(3-pyridinylmethoxy)-4-pyrimidinyl)-1,3-benzothiazol-2-yl)acetamide]: the IC50 was 789 nM in assay [1] (setting [2]), 452 nM at PI3K α and > 40000 nM at PI3K β.
For the molecule `Nc1nc2ccc(-c3cnc(Cl)c(NS(=O)(=O)c4ccc(F)cc4Cl)c3)cc2s1` [Example 309, N-(5-(2-amino-1,3-benzothiazol-6-yl)-2-chloro-3-pyridinyl)-2-chloro-4-fluorobenzenesulfonamide], the IC50 stood at 496 nM in assay [1] (setting [2]), 14.9 nM on PI3K α and 36.8 nM on PI3K β.
The corresponding values for `COc1ccc(S(=O)(=O)c2cccc(-c3cc(F)c4nc(NC(C)=O)sc4c3)n2)cc1` [Example 148, N-(4-fluoro-6-(6-((4-methoxyphenyl)sulfonyl)-2-pyridinyl)-1,3-benzothiazol-2-yl)acetamide] are 881 nM, 151 nM and 1360 nM.
On to `CC(=O)Nc1nc2ccc(-c3cnc(C(F)(F)F)c(O)c3)cc2s1` [Example 302, N-(6-(5-hydroxy-6-(trifluoromethyl)pyridin-3-yl)benzo[d]thiazol-2-yl)acetamide], for which the figures for the IC50 (in assay [1] (setting [2]); on PI3K α; at PI3K β) were 157 nM, 8.5 nM and 159 nM, respectively.
The corresponding values for `CC(=O)Nc1nc2ccc(-c3cnc(Cl)c(NS(=O)(=O)c4cccs4)c3)cc2s1` [Example 186, N-(6-(6-chloro-5-(thiophene-2-sulfonamido)pyridin-3-yl)benzo[d]thiazol-2-yl)acetamide] are 15.6 nM, 6.6 nM and 14.3 nM.
Consider `CC(=O)Nc1nc2ccc(-c3ccnc(NCc4ccccc4)n3)cc2s1` [Example 49, N-(6-(2-(benzylamino)-4-pyrimidinyl)-1,3-benzothiazol-2-yl)acetamide], for which the IC50 was 15300 nM in assay [1] (setting [2]), 418 nM at PI3K α and 1450 nM on PI3K β.
As for `CC(=O)Nc1nc2ccc(-c3cncc(NS(=O)(=O)c4ccccc4)c3)cc2s1` [Example 202, N-(6-(5-(phenylsulfonamido)pyridin-3-yl)benzo[d]thiazol-2-yl)acetamide], the results for the IC50 (in assay [1] (setting [2]); on PI3K α; at PI3K β) were 271 nM, 5.6 nM and 31.7 nM, respectively.
Take `COc1nccc(-c2ccc3nc(NC(C)=O)sc3c2)n1` [Example 51, N-(6-(2-methoxy-4-pyrimidinyl)-1,3-benzothiazol-2-yl)acetamide]: the half-inhibitory concentration (IC50) in assay [1] (setting [2]) is 952 nM; on PI3K α, 505 nM; on PI3K β, > 40000 nM.
The corresponding values for `CNC(=O)Nc1nc2ccc(-c3ccnc(OCc4ccccc4)n3)cc2s1` [Example 56, 1-(6-(2-(benzyloxy)-4-pyrimidinyl)-1,3-benzothiazol-2-yl)-3-methylurea] are > 5000 nM, 254 nM and 402 nM.
In the case of `CC(=O)Nc1nc2ccc(-c3ccnc(N(C)S(=O)(=O)c4ccc(C)c(C)c4)n3)cc2s1` [Example 210, N-(6-(2-(N,3,4-trimethylphenylsulfonamido)pyrimidin-4-yl)benzo[d]thiazol-2-yl)acetamide], the IC50 in assay [1] (setting [2]) turned out to be 59.3 nM; at PI3K α, 14.7 nM; on PI3K β, 39.1 nM.
